The values that follow come from ChEMBL document CHEMBL1152717, “Discovery of mu-opioid selective ligands derived from 1-aminotetralin scaffolds made via metal-catalyzed ring-opening reactions” (Bioorg Med Chem Lett, 2009).

The target in test [1] is T1, Mu-type opioid receptor (Homo sapiens, UniProt P35372). The experiment in a line: Displacement of [125I]FK33824 from human cloned mu opioid receptor. For orientation: In a radioligand displacement assay an active substance lowers the binding of a labelled ligand.
The target of test [2] is Kappa-type opioid receptor (Homo sapiens, UniProt P41145). The experiment in a line: Displacement of [125I]U69593 from human cloned kappa opioid receptor.
Test [3] deals with Delta-type opioid receptor (Homo sapiens, UniProt P41143). Description: Displacement of [125I]deltorphin 2 from human cloned delta opioid receptor.
Test [4] concerns the target T1, Mu-type opioid receptor. Conditions: at 100 µM.
Description: Intrinsic activity at human cloned mu opioid receptor at 100 uM by [35S]GTPgammaS binding assay relative to DAMGO
The target in test [5] is T1, Mu-type opioid receptor. Description: Agonist activity at human cloned mu opioid receptor by [35S]GTPgammaS binding assay. The format is functional. (In general: GTPγS resists hydrolysis and so accumulates on activated G proteins.)

pEC50, pIC50: −log10 of the molar value.

Chain of Delta-type opioid receptor (P41143 whole entry): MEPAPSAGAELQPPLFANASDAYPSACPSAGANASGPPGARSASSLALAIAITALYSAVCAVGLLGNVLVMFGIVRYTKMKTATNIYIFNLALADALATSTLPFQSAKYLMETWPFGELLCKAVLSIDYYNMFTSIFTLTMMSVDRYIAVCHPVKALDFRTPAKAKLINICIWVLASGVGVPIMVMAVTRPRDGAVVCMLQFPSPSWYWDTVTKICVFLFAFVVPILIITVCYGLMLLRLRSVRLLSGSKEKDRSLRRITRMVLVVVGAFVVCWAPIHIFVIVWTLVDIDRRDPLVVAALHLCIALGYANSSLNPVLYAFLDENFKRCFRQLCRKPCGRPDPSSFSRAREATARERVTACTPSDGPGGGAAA
T1 sequence (P35372 whole entry): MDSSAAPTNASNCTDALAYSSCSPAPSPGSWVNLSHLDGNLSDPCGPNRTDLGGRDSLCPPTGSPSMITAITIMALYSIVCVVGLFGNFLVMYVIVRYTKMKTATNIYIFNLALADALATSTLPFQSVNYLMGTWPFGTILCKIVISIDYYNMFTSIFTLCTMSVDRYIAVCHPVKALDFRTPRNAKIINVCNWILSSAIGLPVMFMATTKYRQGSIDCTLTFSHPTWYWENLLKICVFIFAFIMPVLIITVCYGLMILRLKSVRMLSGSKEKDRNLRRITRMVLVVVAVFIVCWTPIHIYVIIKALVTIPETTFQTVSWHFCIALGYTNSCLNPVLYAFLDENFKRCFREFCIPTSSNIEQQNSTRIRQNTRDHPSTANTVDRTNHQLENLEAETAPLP
Chain of Kappa-type opioid receptor (P41145 whole entry): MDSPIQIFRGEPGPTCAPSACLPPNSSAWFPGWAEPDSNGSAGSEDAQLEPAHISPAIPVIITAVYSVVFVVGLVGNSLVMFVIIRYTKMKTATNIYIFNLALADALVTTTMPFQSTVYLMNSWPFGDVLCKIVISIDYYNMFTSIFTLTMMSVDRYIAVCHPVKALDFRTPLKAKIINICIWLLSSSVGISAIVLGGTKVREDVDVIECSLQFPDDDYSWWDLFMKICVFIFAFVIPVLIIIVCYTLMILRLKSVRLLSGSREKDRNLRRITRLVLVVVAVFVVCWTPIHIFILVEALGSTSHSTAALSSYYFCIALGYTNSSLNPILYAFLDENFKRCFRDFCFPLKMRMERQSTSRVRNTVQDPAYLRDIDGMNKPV

For the compound `COCCN(C(=O)c1sccc1Cl)[C@@H]1c2ccccc2C=C[C@H]1N1CCN(c2ccccc2)CC1`, the pIC50 (commonly the negative decadic logarithm of the IC50, by convention in mol/L) was 7.24 on Mu-type opioid receptor [1], 5.88 in test [2] and 5.91 in test [3].

For `COCCN(C(=O)c1sccc1Cl)[C@H]1c2ccccc2C=C[C@@H]1N1CCN(c2ccccc2)CC1`, at Mu-type opioid receptor [1], the pIC50 is 5.55.

For `COCCN[C@@H]1c2ccccc2CC[C@H]1c1ccsc1`, the figures for the pIC50 in test [2] and in test [3] were 6.15 and 5.42, respectively.

`C[C@@]12CCCCC[C@@H](Cc3ccc(O)cc31)[C@@H]2N`: the Emax (usually the size of the effect at its maximum, as opposed to the concentration needed) on Mu-type opioid receptor [4] was 6%.

`COCCNC1c2ccccc2CCC1c1ccsc1` (racemic): the pIC50 in test [2] was 5.66.

For `COCCN(C(=O)COCc1ccccc1)C1c2ccccc2C=CC1N1CCN(c2ccccc2)CC1` (racemic), the pEC50 (as a rule, the negative decadic logarithm of the EC50, by convention in mol/L) at Mu-type opioid receptor [5] was less than 4.05. In addition, the pIC50 at Mu-type opioid receptor [1] is 6.68; in test [2], less than 5.00; in test [3], 5.41. This compound also came in with an Emax at Mu-type opioid receptor [4] of 10%.

With `COCCN(C(=O)Cc1cccc(OC)c1)C1c2ccccc2C=CC1N1CCN(c2ccccc2)CC1` (racemic), the pEC50 at Mu-type opioid receptor [5] is less than 4.05. Besides, the pIC50 at Mu-type opioid receptor [1] was 6.82; in test [2] it was less than 5.00; in test [3], 5.83. In addition, the Emax at Mu-type opioid receptor [4] is 10%.

Regarding `COCCN(C(=O)Cc1ccc(Cl)cc1)C1c2ccccc2C=CC1N1CCN(c2ccccc2)CC1` (racemic), the pEC50 on Mu-type opioid receptor [5] was less than 4.05. Further, the pIC50 on Mu-type opioid receptor [1] is 6.74; in test [2], 5.10; in test [3] it was 5.71. This compound also registered an Emax at Mu-type opioid receptor [4] of 0%.

As to `COCCN(C(=O)c1sccc1Cl)C1c2ccccc2C=CC1N1CCN(c2ccccc2)CC1` (racemic), at Mu-type opioid receptor [5], the pEC50 is less than 4.05. Besides, the pIC50 was 7.00 on Mu-type opioid receptor [1], 5.15 in test [2] and 5.64 in test [3]. Also, at Mu-type opioid receptor [4], the Emax worked out at 0%.

Turning to `COCCN(C(=O)c1ccc(Cl)c(Cl)c1)C1c2ccccc2C=CC1N1CCN(c2ccccc2)CC1` (racemic), the pEC50 on Mu-type opioid receptor [5] is less than 4.05. Further, the pIC50 on Mu-type opioid receptor [1] was 6.35; in test [2] it was less than 5.00; in test [3], 5.44. Moreover, the Emax at Mu-type opioid receptor [4] stood at 60%.

Turning to `COCCN(C(=O)c1cc(C)nn1C)C1c2ccccc2CCC1c1ccsc1` (racemic), the pIC50 on Mu-type opioid receptor [1] is 5.31; in test [2] it was less than 5.00; in test [3], 5.89.
